For the assay, the target named is IDO (Homo sapiens (Human), UniProt P14902). Description: Kynurenine assay in IFN-γ-stimulated Hela cells. The class given is cell-based. Particulars: 20 h, read-out: Hela Kyurenine (IC50). Here is the method:
Reagents: Hela cells (ATCC, CCL-2)
IFNg (R&D, 28-IF-100)—resuspend at 10 ug/mL in PBS with 0.1% BSA 30% TCA
Ehrlich reagent (2% w/v p-dimethylaminobenzaldehyde in glacial acetic acid)
Cell Lines and Culture Conditions
Hela cancer cell lines were acquired from the American Type Culture Collection. Cells were maintained in phenol red free-RPMI1640 medium containing high glucose and L-glutamine (Invitrogen) supplemented with 10% fetal bovine serum (FBS; Invitrogen). Cell cultures were incubated at 37° C., 5% CO2, and 100% humidity.
Cell Treatment and Kynurenine Assay
Hela cells were seeded on 96-well plates (40,000 cells per well) and allowed to adhere for 5-6 hours. Cells were then treated with vehicle (DMSO) or with IDO inhibitor at a top dose of 30 μM (3-fold dilution all the way down to 1.5 nM). A final concentration of 100 ng/mL of human recombinant IFN-γ (R&D, 28-IF-100) was immediately added to the cells to stimulate IDO expression. Treated cells were then incubated for 20 hours at 37° C. At the end of the 20 h incubation, reactions were terminated by the addition of 30% TCA to each well. Plates were incubated for 30 minutes at 50° C. to hydrolyze N-formylkynurenine to kynurenine. Cells were centrifuged 10 minutes at 2400 rpm. 100 ul of supernatants were transferred to new 96 flat well plates and mixed with 100 ul Ehrlich reagent. The resulting solution was incubated 10 minutes at RT. Absorbance at 490 nm was read using Spectra Max 384 (Molecular Devices).
Sequence of IDO (P14902 whole entry): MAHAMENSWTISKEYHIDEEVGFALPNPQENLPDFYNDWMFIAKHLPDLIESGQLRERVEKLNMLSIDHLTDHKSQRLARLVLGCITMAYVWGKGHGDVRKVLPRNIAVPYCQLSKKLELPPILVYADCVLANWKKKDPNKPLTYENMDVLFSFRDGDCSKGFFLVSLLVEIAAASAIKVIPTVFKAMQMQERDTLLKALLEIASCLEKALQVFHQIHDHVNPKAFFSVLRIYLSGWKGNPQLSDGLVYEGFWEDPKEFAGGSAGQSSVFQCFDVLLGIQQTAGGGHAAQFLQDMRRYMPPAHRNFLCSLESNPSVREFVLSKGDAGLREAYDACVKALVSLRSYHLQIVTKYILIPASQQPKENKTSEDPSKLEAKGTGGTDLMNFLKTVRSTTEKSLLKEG
By IC50 is commonly meant the concentration at which inhibition is half-maximal. Turning to `COc1ccc(-c2ccc(Oc3ccccc3C(C)(C)C)c(NC(=O)Nc3ccc(C(C)(C)C)cc3)c2)cc1C(=O)O` [Example 99, 4′-(2-(tert-butyl)phenoxy)-3′-(3-(4-(tert-butyl)phenyl)ureido)-4-methoxy-[1,1′-biphenyl]-3-carboxylic acid], the IC50 came out at 220 nM. The same measure for `Cc1ccc(NC(=O)Nc2cc(-c3cccc(C(=O)O)c3)ccc2Oc2c(Cl)cccc2Cl)cc1` [Example 247, 4′-(2,6-dichlorophenoxy)-3′-(3-p-tolylureido) biphenyl-3-carboxylic acid]: 1340 nM.

In the case of `CCCNC(=O)Nc1cc(-c2ccc(OC)c(C(=O)O)c2)ccc1Oc1ccccc1C(C)(C)C` [Example 89, 4′-(2-(tert-butyl)phenoxy)-3′-(3-(n-propyl)ureido)-4-methoxy-[1,1′-biphenyl]-3-carboxylic acid], the IC50 was found to be 120 nM. Take `CC(C)(C)c1ccccc1Oc1ccc(-c2ccc(C(=O)O)cc2)cc1NC(=O)Nc1ccc(C(F)(F)F)cc1` [Example 209, 4′-(2-tert-butylphenoxy)-3′-(3-(4-(trifluoromethyl)phenyl)ureido) biphenyl-4-carboxylic acid]: the IC50 was found to be 1740 nM. The same measure for `Cc1cccc(NC(=O)Nc2cc(-c3ccc(Cl)cc3C(=O)O)ccc2Oc2ccccc2C(C)(C)C)c1` [Example 160, 4′-(2-tert-butylphenoxy)-4-chloro-3′-(3-m-tolylureido)biphenyl-2-carboxylic acid]: 1320 nM; for `Cc1ccc(NC(=O)Nc2cc(-c3ccc(C(=O)O)c(F)c3)ccc2Oc2ccccc2C(C)(C)C)cc1` [Example 218, 4′-(2-tert-butylphenoxy)-3-fluoro-3′-(3-p-tolylureido) biphenyl-4-carboxylic acid]: 650 nM; for `CC(C)(C)c1ccccc1Oc1ccc(-c2cccc(C(=O)O)c2)cc1NC(=O)Nc1cccc(Cl)c1` [Example 231, 4′-(2-tert-butylphenoxy)-3′-(3-(3-chlorophenyl)ureido)biphenyl-3-carboxylic acid]: 720 nM. For `COc1cc(-c2ccc(Oc3ccccc3C(C)(C)C)c(NC(=O)Nc3ccc(C)cc3)c2)ccc1C(=O)O` [Example 258, 4′-(2-tert-butylphenoxy)-3-methoxy-3′-(3-p-tolylureido) biphenyl-4-carboxylic acid] the value was 2250 nM; for `CC(C)(C)c1ccccc1Oc1ccc(-c2ccc(C(=O)O)cc2)cc1NC(=O)Nc1ccccc1Cl` [Example 202, 4′-(2-tert-butylphenoxy)-3′-(3-(2-chlorophenyl)ureido)biphenyl-4-carboxylic acid], 1690 nM; for `COc1ccc(-c2ccc(Oc3ccccc3C(C)(C)C)c(NC(=O)NC(C)(C)C)c2)cc1C(=O)O` [Example 88, 4′-(2-(tert-butyl)phenoxy)-3′-(3-(tert-butyl)ureido)-4-methoxy-[1,1′-biphenyl]-3-carboxylic acid], 130 nM. With `COc1ccc(-c2ccc(Oc3ccccc3C(C)(C)C)c(NC(=O)Nc3ccc(C)cc3F)c2)cc1C(=O)O` [Example 100, 4′-(2-(tert-butyl)phenoxy)-3′-(3-(2-fluoro-4-methylphenyl)ureido)-4-methoxy-[1,1′-biphenyl]-3-carboxylic acid], the IC50 turned out to be 470 nM. In the case of `COc1ccc(-c2ccc(O[C@@H]3CCCC[C@H]3C)c(NC(=O)Nc3ccccc3C)c2)cc1C(=O)O` (relative stereo) [Example 137, 4-methoxy-4′-((trans)-2-methylcyclohexyloxy)-3′-(3-o-tolylureido)biphenyl-3-carboxylic acid], the IC50 turned out to be 2430 nM. On to `Cc1ccc(NC(=O)Nc2cc(-c3ccc(C(=O)O)c(Cl)c3)ccc2Oc2ccccc2C(F)(F)F)cc1` [Example 205, 3-chloro-3′-(3-p-tolylureido)-4′-(2-(trifluoromethyl)phenoxy)biphenyl-4-carboxylic acid], for which the IC50 is 850 nM. In the case of `CCCCNC(=O)Nc1cc(-c2ccc(OC)c(C(=O)O)c2)ccc1Oc1ccccc1C(C)(C)C` [Example 90, 4′-(2-(tert-butyl)phenoxy)-3′-(3-(n-butyl)ureido)-4-methoxy-[1,1′-biphenyl]-3-carboxylic acid], the IC50 came to 260 nM. For `COc1ccc(-c2ccc(Oc3ccccc3C(C)(C)C)c(NC(=O)Nc3cccc(C#N)c3)c2)cc1C(=O)O` [Example 108, 4′-(2-(tert-butyl)phenoxy)-3′-(3-(3-cyanophenyl)ureido)-4-methoxy-[1,1′-biphenyl]-3-carboxylic acid] the value was 720 nM; for `COc1cc(-c2ccc(Oc3ccccc3C(C)(C)C)c(NC(=O)Nc3ccccc3C)c2)ccc1C(=O)O` [Example 211, 4′-(2-tert-butylphenoxy)-3-methoxy-3′-(3-o-tolylureido) biphenyl-4-carboxylic acid], 1630 nM. Turning to `COc1ccc(-c2ccc(Oc3ccccc3C(C)(C)C)c(NC(=O)Nc3cccc(Cl)c3C)c2)cc1C(=O)O` [Example 98, 4′-(2-(tert-butyl)phenoxy)-3′-(3-(3-chloro-2-methylphenyl)ureido)-4-methoxy-[1,1′-biphenyl]-3-carboxylic acid], the half-maximal inhibitory concentration (IC50) amounted to 160 nM.

In the case of `O=C(Nc1ccc(C(F)(F)F)cc1)Nc1cc(-c2ccc(C(=O)O)c(Cl)c2)ccc1Oc1ccccc1C(F)(F)F` [Example 207, 3-chloro-4′-(2-(trifluoromethyl)phenoxy)-3′-(3-(4-(trifluoromethyl)phenyl)ureido) biphenyl-4-carboxylic acid], the half-maximal inhibitory concentration (IC50) is 1230 nM. The same measure for `COc1ccc(-c2ccc(Oc3ccccc3C(C)(C)C)c(NC(=O)Nc3ccc(C)cc3)c2)cc1C(=O)O` [Example 255, 4′-(2-tert-butylphenoxy)-4-methoxy-3′-(3-p-tolylureido) biphenyl-3-carboxylic acid]: 370 nM; for `Cc1ccccc1NC(=O)Nc1cc(-c2cccc(C(=O)O)c2)ccc1Oc1cccc(Cl)c1` [Example 244, 4′-(3-chlorophenoxy)-3′-(3-o-tolylureido) biphenyl-3-carboxylic acid]: 840 nM; for `O=C(Nc1ccccc1Cl)Nc1cc(-c2ccc(C(=O)O)c(Cl)c2)ccc1Oc1ccccc1C(F)(F)F` [Example 203, 3-chloro-3′-(3-(2-chlorophenyl)ureido)-4′-(2-(trifluoromethyl)phenoxy)biphenyl-4-carboxylic acid]: 500 nM. For the molecule `COc1ccc(-c2cnc(Oc3ccccc3C(C)(C)C)c(NC(=O)Nc3ccc(C)cc3)c2)cc1C(=O)O` [Example 335], the IC50 was 340 nM. On to `O=C(Nc1ccc(OC(F)(F)F)cc1)Nc1cc(-c2cccc(C(=O)O)c2)ccc1Oc1ccc(Cl)cc1` [Example 243, 4′-(4-chlorophenoxy)-3′-(3-(4-(trifluoromethoxy)phenyl)ureido) biphenyl-3-carboxylic acid], for which the IC50 was 1820 nM. As to “4′-(2-(tert-butyl)phenoxy)-3′-(3-(4-chlorophenyl)ureido)-4-methoxy-[1,1′-biphenyl]-3-carboxylic acid [Example 106]”, the IC50 stood at 470 nM. For `COc1ccc(-c2ccc(Oc3ccccc3C(C)(C)C)c(NC(=O)Nc3cccc(Cl)c3)c2)cc1C(=O)O` [Example 85, 4′-(2-(tert-butyl)phenoxy)-3′-(3-(3-chlorophenyl)ureido)-4-methoxy-[1,1′-biphenyl]-3-carboxylic acid] the value was 110 nM.

The values above are taken from US9765018B2, “IDO inhibitors” (BRISTOL-MYERS SQUIBB COMPANY, priority 2013, dated 2017).
